Results published in EPA's ToxRefDB 2.

Assays:
rat [1] = conditions: Subchronic oral toxicity in rodents, fischer, Gavage/Intubation, dose end: 13 week, group: systemic
mouse [2] = conditions: Subchronic oral toxicity in rodents, b6c3f1, Gavage/Intubation, dose end: 13 week, group: systemic
rat [3] = conditions: Combined chronic toxicity/carcinogenicity, fischer, Oral, Gavage/Intubation, dose end: 103 week, group: systemic
mouse [4] = conditions: Subchronic oral toxicity in rodents, cd1, Gavage/Intubation, dose end: 3 month, group: systemic
rat [5] = conditions: Sub-acute repeat dose toxicity; sprague dawley; Oral; Gavage/Intubation; dose end: 1 month; group: systemic; systemic / hematology / blood clotting / blood clotting - prothrombin time + systemic / hematology / platelet / platelet + systemic / organ …
mouse [6] = conditions: Sub-acute repeat dose toxicity, cd1, Oral, Gavage/Intubation, dose end: 1 month, group: systemic
dog [7] = conditions: Sub-acute repeat dose toxicity, beagle, Oral, Capsule, dose end: 1 month, group: systemic
dog [8] = conditions: Subchronic oral toxicity in nonrodent, beagle, Capsule, dose end: 3 month, group: systemic, systemic / clinical chemistry / alanine aminotransferase (alt/sgpt) / alanine aminotransferase (alt/sgpt) + systemic / clinical chemistry / …
rat [9] = conditions: Fertility (Segment I), sprague dawley, Oral, Gavage/Intubation, dose end: 7 GD, group: parental
rat [10] = conditions: Prenatal developmental toxicity study, sprague dawley, Oral, Gavage/Intubation, dose end: 17 GD, group: maternal
rat [11] = conditions: Prenatal developmental toxicity study, sprague dawley, Oral, Gavage/Intubation, dose end: 17 GD
rat [12] = conditions: Sub-acute repeat dose toxicity, sprague dawley, Oral, Gavage/Intubation, dose end: 1 month
rat [13] = conditions: Chronic toxicity; sprague dawley; Oral; Gavage/Intubation; dose end: 6 month; group: systemic; systemic / clinical chemistry / chloride / chloride + systemic / clinical chemistry / sodium / sodium + systemic / hematology / hematocrit (…
rabbit = conditions: Prenatal developmental toxicity study, new zealand white, Oral, Gavage/Intubation, dose end: 19 GD
rat [14] = conditions: Fertility (Segment I), sprague dawley, Oral, Gavage/Intubation, dose end: 7 GD
[15] = systemic / in life observation / body weight / body weight + systemic / in life observation / clinical signs / lethargy + systemic / in life…
[16] = systemic / in life observation / body weight / body weight
[17] = systemic / in life observation / body weight / body weight + systemic / in life observation / clinical signs / altered breathing rate + …
[18] = systemic / pathology microscopic / liver / cytologic alterations + systemic / pathology microscopic / liver / hyperplasia
[19] = systemic / pathology microscopic / liver / cytologic alterations + systemic / pathology microscopic / liver / hyperplasia + systemic / …
[20] = systemic / clinical chemistry / cholesterol / cholesterol + systemic / clinical chemistry / bilirubin / total bilirubin + systemic / organ …
[21] = systemic / organ weight / liver / absolute + systemic / organ weight / liver / relative to body weight + systemic / organ weight / spleen / …
[22] = systemic / in life observation / body weight / body weight gain + systemic / in life observation / clinical signs / drooping eyelids (ptosis…
[23] = systemic / in life observation / body weight / body weight gain + systemic / in life observation / clinical signs / piloerection + systemic…
[24] = systemic / clinical chemistry / alkaline phosphatase (alp/alk) / alkaline phosphatase (alp/alk) + systemic / clinical chemistry / …
[25] = systemic / clinical chemistry / lipids / phospholipids + systemic / pathology gross / liver / [other] + systemic / clinical chemistry / …
[26] = systemic / in life observation / body weight / body weight gain + systemic / in life observation / food consumption / food consumption
[27] = systemic / in life observation / body weight / body weight gain + systemic / in life observation / food consumption / food consumption + …
[28] = systemic / in life observation / clinical signs / body surface staining
[29] = group: developmental, systemic / in life observation / body weight / fetal weight
[30] = group: maternal, reproductive / reproductive performance / preimplantation loss / preimplantation loss + systemic / in life observation / body weight / body …
[31] = group: maternal, systemic / in life observation / body weight / body weight gain + systemic / in life observation / clinical signs / piloerection + systemic…
[32] = group: maternal, reproductive / reproductive performance / estrous cycle / abnormal
[33] = group: systemic, systemic / clinical chemistry / cholesterol / cholesterol + systemic / clinical chemistry / globulins / globulins + systemic / clinical …
[34] = group: systemic, systemic / urinalysis / specific gravity/osmolality / specific gravity/osmolality + systemic / urinalysis / volume / volume
[35] = group: maternal, reproductive / reproductive performance / postimplantation loss / postimplantation loss + reproductive / reproductive performance / …
[36] = group: maternal, systemic / in life observation / clinical signs / defecation
[37] = group: maternal, reproductive / reproductive performance / implantations / implantations + reproductive / reproductive performance / preimplantation loss / …
[38] = group: parental, systemic / in life observation / body weight / body weight gain
[39] = group: parental, systemic / in life observation / body weight / body weight gain + systemic / in life observation / clinical signs / body surface staining + …

COC(N)=O [Methyl carbamate]
LOAEL (rat [1]; [15]): > 800 mg/kg/day | NEL (rat [1]; [15]): 200 mg/kg/day | NOAEL (rat [1]; [15]): ≥ 800 mg/kg/day | LEL (rat [1]; systemic / in life observation / body weight / body weight + systemic / in life observation / clinical signs / lethargy + systemic / organ …): 400 mg/kg/day | LEL (mouse [2]; [16]): 125 mg/kg/day | NEL (mouse [2]; [16]): < 125 mg/kg/day | LOAEL (mouse [2]; [17]): > 1500 mg/kg/day | NOAEL (mouse [2]; [17]): ≥ 1500 mg/kg/day | LOAEL (rat [3]; [18]): 100 mg/kg/day | NOAEL (rat [3]; [18]): < 100 mg/kg/day | LEL (rat [3]; [19]): 100 mg/kg/day | NEL (rat [3]; [19]): < 100 mg/kg/day

COc1ccc(S(=O)(=O)N2C(=O)[C@@](c3ccccc3OC)(N3C[C@H](O)C[C@H]3C(=O)N(C)C)c3cc(Cl)ccc32)c(OC)c1 [Nelivaptan]
LOAEL (mouse [4]; [20]): 1000 mg/kg/day | NOAEL (mouse [4]; [20]): 500 mg/kg/day | LEL (mouse [4]; [21]): 500 mg/kg/day | NEL (mouse [4]; [21]): < 500 mg/kg/day | LEL (rat [5]): 25 mg/kg/day | LOAEL (rat [5]): > 200 mg/kg/day | NEL (rat [5]): < 25 mg/kg/day | NOAEL (rat [5]): ≥ 200 mg/kg/day | LOAEL (mouse [6]; [22]): > 4000 mg/kg/day | NOAEL (mouse [6]; [22]): ≥ 4000 mg/kg/day | LEL (mouse [6]; [23]): 1000 mg/kg/day | NEL (mouse [6]; [23]): < 1000 mg/kg/day | LOAEL (dog [7]; [24]): 200 mg/kg/day | NOAEL (dog [7]; [24]): 50 mg/kg/day | LEL (dog [7]; [25]): 50 mg/kg/day | NEL (dog [7]; [25]): < 50 mg/kg/day | LEL (dog [8]): 100 mg/kg/day | LOAEL (dog [8]): 100 mg/kg/day | NEL (dog [8]): 25 mg/kg/day | NOAEL (dog [8]): 25 mg/kg/day | LOAEL (rat [9]; [26]): 750 mg/kg/day | NOAEL (rat [9]; [27]): 450 mg/kg/day | LEL (rat [9]; [28]): 150 mg/kg/day | NEL (rat [9]; [28]): < 150 mg/kg/day | LEL (rat [10]; [26]): 150 mg/kg/day | NEL (rat [10]; [26]): < 150 mg/kg/day | LOAEL (rat [10]; [27]): > 750 mg/kg/day | NOAEL (rat [10]; [27]): ≥ 750 mg/kg/day | LEL (rat [11]; [29]): 750 mg/kg/day | LOAEL (rat [11]; [29]): 750 mg/kg/day | NEL (rat [11]; [29]): 300 mg/kg/day | NOAEL (rat [11]; [29]): 300 mg/kg/day | LOAEL (rat [11]; [30]): > 1500 mg/kg/day | NOAEL (rat [11]; [30]): ≥ 1500 mg/kg/day | LEL (rat [11]; [31]): 300 mg/kg/day | NEL (rat [11]; [31]): < 300 mg/kg/day | LEL (rat [12]; [32]): 800 mg/kg/day | LOAEL (rat [12]; [32]): > 800 mg/kg/day | NEL (rat [12]; [32]): 200 mg/kg/day | NOAEL (rat [12]; [32]): ≥ 800 mg/kg/day | LOAEL (rat [12]; [33]): 200 mg/kg/day | NOAEL (rat [12]; [33]): 50 mg/kg/day | LEL (rat [12]; [34]): 50 mg/kg/day | NEL (rat [12]; [34]): < 50 mg/kg/day | LEL (rat [13]): 25 mg/kg/day | LOAEL (rat [13]): 25 mg/kg/day | NEL (rat [13]): < 25 mg/kg/day | NOAEL (rat [13]): < 25 mg/kg/day | LEL (rabbit; [29]): 2000 mg/kg/day | LOAEL (rabbit; [29]): > 2000 mg/kg/day | NEL (rabbit; [29]): 1000 mg/kg/day | NOAEL (rabbit; [29]): ≥ 2000 mg/kg/day | LOAEL (rabbit; [35]): 1000 mg/kg/day | NOAEL (rabbit; [35]): 500 mg/kg/day | LEL (rabbit; [36]): 250 mg/kg/day | NEL (rabbit; [36]): < 250 mg/kg/day | LEL (rat [14]; [37]): 750 mg/kg/day | LOAEL (rat [14]; [37]): 750 mg/kg/day | NEL (rat [14]; [37]): 600 mg/kg/day | NOAEL (rat [14]; [37]): 600 mg/kg/day | LEL (rat [14]; [38]): 100 mg/kg/day | NEL (rat [14]; [38]): < 100 mg/kg/day | LOAEL (rat [14]; [39]): 750 mg/kg/day | NOAEL (rat [14]; [39]): 600 mg/kg/day
